In assay [1] the target is T1, human α1D receptor (Homo sapiens, UniProt P25100).
T1 construct: expressed in transfected cells; host or cells: CHO cells (membrane preparation)
T1 sequence (P25100 1-572): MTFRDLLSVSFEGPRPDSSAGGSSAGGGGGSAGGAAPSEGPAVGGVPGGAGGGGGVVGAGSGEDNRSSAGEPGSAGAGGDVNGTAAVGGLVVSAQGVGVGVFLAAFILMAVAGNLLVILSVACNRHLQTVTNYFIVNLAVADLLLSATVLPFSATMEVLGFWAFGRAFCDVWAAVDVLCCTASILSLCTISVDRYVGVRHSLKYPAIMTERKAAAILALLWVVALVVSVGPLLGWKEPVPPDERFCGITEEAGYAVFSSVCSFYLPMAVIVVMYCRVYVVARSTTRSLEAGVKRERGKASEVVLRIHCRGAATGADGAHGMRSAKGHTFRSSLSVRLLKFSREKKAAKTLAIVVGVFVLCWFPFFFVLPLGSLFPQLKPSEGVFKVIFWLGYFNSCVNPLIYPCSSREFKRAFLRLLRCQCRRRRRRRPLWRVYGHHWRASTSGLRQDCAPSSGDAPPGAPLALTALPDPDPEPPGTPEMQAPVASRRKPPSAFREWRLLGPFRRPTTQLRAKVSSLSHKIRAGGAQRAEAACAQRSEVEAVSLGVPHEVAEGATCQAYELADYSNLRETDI
Description: Adrenaline α1D receptor binding assay ([3H]-prazosin). The conditions noted are these: 100 nM test drug; [3H]-prazosin 0.6 nM; human α1D receptor-expressing CHO cell membrane; read-out: BINDING INHIBITION RATE (%) α1D 100 nM. As to the method:
(4) Adrenaline α1D Receptor Binding Assay
After a reaction in a total volume of 200 μL of 50 mM Tris-HCl (pH=7.6) buffer solution containing 50 μL of [^3H]-prazosin (final concentration 0.6 nM), 1 μL of test drug in DMSO, and 149 μL of human α1D receptor-expressing CHO cell membrane sample, human α1D receptor binding activity of [^3H]-prazosin was measured. The reaction solution let stand for 30 minutes at room temperature, and then it was quickly added on a glass fiber filter plate (Multiscreen FB, Millipore inc.) coated with 0.3% polyethyleneimine (PEI) and filtered under reduced pressure. The glass fiber filter was washed with 200 μL of ice-cooled 50 mM Tris-HCl (pH=7.6) twice, repeatedly filtered under reduced pressure, and then transferred to a vial containing 4 mL of Ecoscint A (National Diagnostics inc.). The residual radioactivity on the glass fiber filter was measured by a liquid scintillation counter. Nonspecific binding was measured in the presence of 1 μM of prazosin, and [^3H]-prazosin binding inhibition rate in the presence of 100 nM of test drug was determined.

The target of assay [2] is human D2L receptor (Homo sapiens, UniProt P14416). Description: Dopamine D2L receptor binding assay ([3H]-spiperone). The conditions noted are these: 10 nM test drug; [3H]-spiperone 0.5 nM; human D2L receptor-expressing CHO cell membrane; read-out: BINDING INHIBITION RATE (%) D2L 10 nM. The procedure:
(1) Dopamine D2L Receptor Binding Assay
D2L receptor binding assay was performed in reference to a method described by Hirose et al. (Japan. J. Pharmacol., 53, 321-329, 1990). After a reaction in a total volume of 200 μL of 50 mM Tris-HCl (pH=7.6) buffer solution containing 50 μL of [^3H]-spiperone (final concentration 0.5 nM), 1 μL of test drug in DMSO, and 149 μL of human D2L receptor-expressing CHO cell membrane sample, human D2L receptor binding activity of [^3H]-spiperone was measured. The reaction solution let stand for 60 minutes at room temperature, and then it was quickly added on a glass fiber filter plate (Multiscreen FB, Millipore inc.) coated with 0.3% polyethyleneimine (PEI) and filtered under reduced pressure. The glass fiber filter was washed with 200 μL of ice-cooled 50 mM Tris-HCl (pH=7.6) twice, repeatedly filtered under reduced pressure, and then transferred to a vial containing 4 mL of Ecoscint A (National Diagnostics inc.). The residual radioactivity on the glass fiber filter was measured by a liquid scintillation counter. Nonspecific binding was measured in the presence of 10 μM of spiperone, and [^3H]-spiperone binding inhibition rate in the presence of 10 nM of test drug was determined. The larger binding inhibition rate (%) means that test drug has the higher binding affinity for human D2L receptor.

Assay [3] deals with T2, human 5-HT6 receptor (Homo sapiens, UniProt P50406).
T2 construct: expressed in transfected cells; host or cells: CHO cells (membrane preparation)
T2 sequence (P50406 whole entry): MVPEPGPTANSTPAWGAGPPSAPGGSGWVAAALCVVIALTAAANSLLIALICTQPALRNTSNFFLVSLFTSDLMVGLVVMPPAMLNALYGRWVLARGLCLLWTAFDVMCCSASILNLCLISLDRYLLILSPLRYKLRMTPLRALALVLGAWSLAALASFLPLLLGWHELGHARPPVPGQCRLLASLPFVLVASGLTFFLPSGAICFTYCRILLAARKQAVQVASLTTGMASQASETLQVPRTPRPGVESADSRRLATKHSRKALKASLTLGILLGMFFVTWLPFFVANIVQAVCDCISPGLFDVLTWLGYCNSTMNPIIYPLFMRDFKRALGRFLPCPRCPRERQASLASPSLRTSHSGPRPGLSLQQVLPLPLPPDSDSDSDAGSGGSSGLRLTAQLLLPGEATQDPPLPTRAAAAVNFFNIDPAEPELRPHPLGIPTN
Description: Serotonin 5-HT6 receptor binding assay ([3H]-clozapine). The conditions noted are these: 100 nM test drug; [3H]-clozapine 2 nM; human 5-HT6 receptor-expressing CHO cell membrane; read-out: BINDING INHIBITION RATE (%) 5HT6 100 nM. The procedure: (3) Serotonin 5-HT6 Receptor Binding Assay
After a reaction in a total volume of 200 μL of 50 mM Tris-HCl (pH=7.6), 4 mM CaCl2, and 0.5 mM EDTA buffer solution containing 50 μL of [^3H]-clozapine (final concentration 2 nM), 1 μL of test drug in DMSO, and 149 μL of human 5-HT6 receptor-expressing CHO cell membrane sample, human 5-HT6 receptor binding activity of [^3H]-clozapine was measured. The reaction solution let stand for 40 minutes at room temperature, and then it was quickly added on a glass fiber filter plate (Multiscreen FB, Millipore inc.) coated with 0.3% polyethyleneimine (PEI) and filtered under reduced pressure. The glass fiber filter was washed with 200 μL of ice-cooled 50 mM Tris-HCl (pH=7.6) twice, repeatedly filtered under reduced pressure, and then transferred to a vial containing 4 mL of Ecoscint A (National Diagnostics inc.). The residual radioactivity on the glass fiber filter was measured by a liquid scintillation counter. Nonspecific binding was measured in the presence of 10 μM of SB-258585, and [^3H]-clozapine binding inhibition rate in the presence of 100 nM of test drug was determined.

The target in assay [4] is T3, human 5-HT2A receptor (Homo sapiens, UniProt P28223).
T3 construct: expressed in transfected cells; host or cells: CHO cells (membrane preparation)
T3 sequence (P28223 whole entry): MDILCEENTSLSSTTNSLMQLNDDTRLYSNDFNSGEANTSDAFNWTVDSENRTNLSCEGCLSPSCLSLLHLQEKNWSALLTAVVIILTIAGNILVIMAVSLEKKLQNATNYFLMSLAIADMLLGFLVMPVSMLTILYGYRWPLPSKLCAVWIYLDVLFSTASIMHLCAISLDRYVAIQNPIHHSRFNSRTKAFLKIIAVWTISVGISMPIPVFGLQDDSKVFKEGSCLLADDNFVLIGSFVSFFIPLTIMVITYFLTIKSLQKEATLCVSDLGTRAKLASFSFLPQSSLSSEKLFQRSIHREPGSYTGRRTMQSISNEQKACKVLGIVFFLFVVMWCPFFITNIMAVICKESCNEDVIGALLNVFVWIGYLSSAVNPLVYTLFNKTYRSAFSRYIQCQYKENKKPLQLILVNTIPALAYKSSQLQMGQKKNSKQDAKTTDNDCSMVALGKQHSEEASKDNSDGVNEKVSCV
Description: Serotonin 5-HT2A receptor binding assay ([3H]-ketanserin). The conditions noted are these: [3H]-ketanserin 1 nM, human 5-HT2A receptor-expressing CHO cell membrane; for inhibition at 0.001 µM: 1 nM test drug, read-out: BINDING INHIBITION RATE (%) 5HT2A 1 nM; for inhibition at 0.01 µM: 10 nM test drug, read-out: BINDING INHIBITION RATE (%) 5HT2A 10 nM. As to the method: (2) Serotonin 5-HT2A Receptor Binding Assay
5-HT2A receptor binding assay was performed in reference to a method described by Hirose et al. (Japan. J. Pharmacol., 53, 321-329, 1990). After a reaction in a total volume of 200 μL of 50 mM Tris-HCl (pH=7.6) buffer solution containing 50 μL of [^3H]-ketanserin (final concentration 1 nM), 1 μL of test drug in DMSO, and 149 μL of human 5-HT2A receptor-expressing CHO cell membrane sample, human 5-HT2A receptor binding activity of [^3H]-ketanserin was measured. The reaction solution let stand for 15 minutes at 37° C., and then it was quickly added on a glass fiber filter plate (Multiscreen FB, Millipore inc.) coated with 0.05% Brij 35 and filtered under reduced pressure. The glass fiber filter was washed with 200 μL of ice-cooled 50 mM Tris-HCl (pH=7.6) twice, repeatedly filtered under reduced pressure, and then transferred to a vial containing 4 mL of Ecoscint A (National Diagnostics inc.). The residual radioactivity on the glass fiber filter was measured by a liquid scintillation counter. Nonspecific binding was measured in the presence of 10 μM of MDL-100907, and [^3H]-ketanserin binding inhibition rate in the presence of 1 nM or 10 nM of test drug was determined.

Structures are written as SMILES.

In patent publication US8541585B2, “N-acyl cyclic amine derivative or pharmaceutically acceptable salt thereof” (Dainippon Sumitomo Pharma Co., Ltd., priority 2010, dated 2013) one finds inhibition data, which are given here for 14 compounds.

human D2L receptor, sequence (P14416 whole entry): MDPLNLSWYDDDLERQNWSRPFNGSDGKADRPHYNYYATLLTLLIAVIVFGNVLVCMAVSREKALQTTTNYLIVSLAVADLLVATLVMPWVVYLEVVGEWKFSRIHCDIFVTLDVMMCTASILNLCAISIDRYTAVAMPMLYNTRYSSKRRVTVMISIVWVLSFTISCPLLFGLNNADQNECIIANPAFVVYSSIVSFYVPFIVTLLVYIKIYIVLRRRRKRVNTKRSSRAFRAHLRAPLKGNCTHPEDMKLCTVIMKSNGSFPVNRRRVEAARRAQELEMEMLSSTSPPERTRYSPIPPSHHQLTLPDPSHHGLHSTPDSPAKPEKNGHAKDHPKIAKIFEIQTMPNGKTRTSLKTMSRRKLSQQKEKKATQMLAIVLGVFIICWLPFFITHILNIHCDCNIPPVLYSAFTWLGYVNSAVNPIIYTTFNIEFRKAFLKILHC

For the compound `Cc1ccc2cc(C(=O)N3CCC[C@H]3CCN3CCC(C(=O)c4ccc(F)cc4)CC3)[nH]c2c1` [Example 1, (S)-(2-(2-(4-(4-Fluorobenzoyl)piperidin-1-yl)ethyl)pyrrolidin-1-yl)(6-methyl-1H-indol-2-yl)methanone], the inhibition – broadly, how much of the control response was suppressed – at 0.1 µM was 68% in assay [1] and 96% in assay [3]. Also, the inhibition at 0.01 µM in assay [2] turned out to be 91%. The inhibition at 0.001 µM in assay [4] came to 73%.

For the compound `Cc1ccc2cc(C(=O)N3CCC[C@H]3CCN3CCN(c4n[nH]c5ccccc45)CC3)[nH]c2c1` [Example 2, (S)-(2-(2-(4-(1H-Indazol-3-yl)piperazin-1-yl)ethyl)pyrrolidin-1-yl)(6-methyl-1H-indol-2-yl)methanone], the inhibition at 0.1 µM was 63% in assay [1] and 95% in assay [3]. For the same compound, in assay [2], the inhibition at 0.01 µM came out at 73%. Besides, the inhibition at 0.001 µM in assay [4] turned out to be 65%.

Take `Cc1ccc2cc(C(=O)N3CCC[C@H]3CCN3CCC(N4CCc5cc(F)ccc54)CC3)[nH]c2c1` [Example 3]: the results for the inhibition at 0.1 µM in assay [1] and in assay [3] were 74% and 94%, respectively. The inhibition at 0.01 µM in assay [2] amounted to 80%. For the same compound, the inhibition at 0.001 µM in assay [4] was found to be 65%.

Regarding `O=C(/C=C/c1ccc2c(c1)OCO2)N1CCC[C@@H](CCN2CCN(c3nsc4ccccc34)CC2)C1` [Example 4, (S,E)-3-(Benzo[d][1,3]-5-dioxolyl)-1-(3-(2-(4-(benzo[d]isothiazo-3-yl)piperazin-1-yl)ethyl)piperidin-1-yl)-2-propen-1-one], the inhibition at 0.1 µM in assay [1] worked out at 30%; in assay [3], 65%. Besides, the inhibition at 0.01 µM in assay [2] is 73%; in assay [4] it was 96%.

Take `Cc1ccc2cc(C(=O)N3CCC[C@H]3CCN3CCC(c4c[nH]c5cc(F)ccc45)CC3)[nH]c2c1` [Example 5]: the inhibition at 0.1 µM in assay [1] was 70%; in assay [3] it was 98%. Besides, the inhibition at 0.01 µM in assay [2] stood at 83%. Further, the inhibition at 0.001 µM in assay [4] stood at 72%.

In the case of `Cc1ccc2cc(C(=O)N3CCC[C@H]3CCN3CCC(c4noc5cc(F)ccc45)CC3)[nH]c2c1` [Example 6, (S)-(2-(2-(4-(6-Fluorobenzo[d]isoxazol-3-yl)piperidin-1-yl)ethyl)pyrrolidin-1-yl)(6-methyl-1H-indol-2-yl)methanone], the inhibition at 0.1 µM in assay [1] worked out at 71%; in assay [3] it was 94%. Also, the inhibition at 0.01 µM in assay [2] was found to be 91%. The inhibition at 0.001 µM in assay [4] was determined as 61%.

Turning to `O=C(c1cc2cc(F)ccc2[nH]1)N1CCOC[C@H]1CCN1CCC(c2c[nH]c3ccccc23)CC1` [Example 7, (R)-(3-(2-(4-(1H-Indol-3-yl)piperidin-1-yl)ethyl)morpholino)(5-fluoro-1H-indol-2-yl)methanone], the inhibition at 0.1 µM in assay [1] was determined as 86%; in assay [3] it was 97%. In addition, the values for the inhibition at 0.01 µM in assay [2] and in assay [4] were 85% and 100%, respectively.

For `Cc1ccc2[nH]c(C(=O)N3CCC[C@H]3CCN3CCC(c4coc5ccccc45)CC3)cc2c1` [Example 8, (S)-(2-(2-(4-(Benzofuran-3-yl)piperidin-1-yl)ethyl)pyrrolidin-1-yl)(5-methyl-1H-indol-2-yl)methanone], the inhibition at 0.1 µM in assay [1] turned out to be 62%; in assay [3], 93%. In addition, the inhibition at 0.01 µM came to 76% in assay [2] and 92% in assay [4].

For the compound `O=C(/C=C/c1ccc2c(c1)OCO2)N1CCCC[C@H]1CCN1CCN(c2cccc3ccccc23)CC1` [Example 9], the inhibition at 0.1 µM in assay [1] came out at 5%; in assay [3], 61%. For the same compound, the inhibition at 0.01 µM came to 32% in assay [2] and 94% in assay [4].

Regarding `Cc1ccc2cc(C(=O)N3CCC[C@H]3CCN3CCC(n4ccc5ccc(F)cc54)CC3)[nH]c2c1` [Example 10], the inhibition at 0.1 µM in assay [1] was 12%; in assay [3], 74%. Besides, the inhibition at 0.01 µM in assay [2] worked out at 52%. Moreover, the inhibition at 0.001 µM in assay [4] turned out to be 37%.

With `Cc1ccc2cc(C(=O)N3CCC[C@H]3CCN3CCN(c4nccc5ccccc45)CC3)[nH]c2c1` [Example 11], the inhibition at 0.1 µM in assay [1] was found to be 5%; in assay [3], 86%. Also, the inhibition at 0.01 µM in assay [2] came out at 69%. Further, the inhibition at 0.001 µM in assay [4] is 64%.

Regarding `Cc1ccc2cc(C(=O)N3CCC[C@H]3CCN3CCC(N4CCCc5ccccc54)CC3)[nH]c2c1` [Example 12], the inhibition at 0.1 µM in assay [1] was found to be 43%; in assay [3] it was 84%. Also, the inhibition at 0.01 µM in assay [2] is 59%. The inhibition at 0.001 µM in assay [4] was 28%.

For `Cc1ccc2cc(C(=O)N3CCC[C@H]3CCN3CCN(c4nsc5cc(F)ccc45)CC3)[nH]c2c1` [Example 13], the inhibition at 0.1 µM is 60% in assay [1] and 93% in assay [3]. In addition, the inhibition at 0.01 µM in assay [2] came to 72%. The inhibition at 0.001 µM in assay [4] came out at 34%.

In the case of `CCOCCO[C@@H]1C[C@@H](CCN2CCC(c3c[nH]c4ccccc34)CC2)N(C(=O)c2cc3ccc(OC)cc3[nH]2)C1` [Example 37], the inhibition at 0.01 µM in assay [2] is 0%; in assay [4], 91%. In addition, in assay [3], the inhibition at 0.1 µM came to 78%.
